“Also recorded” adds a separate entry of the source.
Tests used:
[1] = tested on: dogs in hyperaldosteronemia; assay: Model for assessing the anti-aldosterone activity (urinary Na/K after aldosterone injection); type: in vivo, dog; settings: for Urine flow rate: aldosterone treatment or aldosterone with spironolactone; for Urine Volume / log (Na × 10/K) / K / Na: N 15; for K / Na: urine; for reversal of the effect of aldosterone on the log ([Na+]urinary×10/[K+]urinary): first 6 hours and 12 hours after dosage
Protocol: They have been tattooed in advance for easy identification and situated in stainless steel individual boxes.
A preliminary study was performed in order to determining the ED80 value for the natriuretic effect of aldosterone on its own.
The dogs described above were allocated to different treatment groups (A, B, C, D, and E) and a rest period was left between treatments.
A negative control group A only received the pharmaceutical excipient. The positive control group B only received 3 μg/kg of aldosterone. […] 200 g food was then given immediately after treatment.
The samples were frozen and kept in the dark at approx. −80° C. […] Also, the urine was collected during the time periods ranging from T0-T6h; T6h-T12h and T12h-T24h.
After calibration and count, the quantity of aldosterone present in the sample was thus determined once counted.
The sodium and potassium contents in urines were determined using […]. […] According to this method 500 μL plasma were mixed with ethyl acetate (80/20, V/V) as solvents. […] The compounds and the internal standard (i.e. methyl-testosterone) were separated on a Kromasil C18 column.
A statistical analysis was performed with the STATGRAPHICS Plus version 4.1 software (Manugestics, Inc., Rockville, Md., U.S.A.). The results were presented such as averages±SD; p<0.05 is considered as significant.

[2] = tested on: patients affected by severe heart failure; settings: 25 mg spironolactone with ACEI, loop diuretics, sometimes digoxin; 284 dead of 822; placebo group 46%; cited from earlier work
[3] = Pharmacokinetic study with 22-14C spironolactone, rat; type: in vivo; settings: rats, after 4 hour oral administration of spironolactone
[4] = Pharmacokinetic study with 22-14C spironolactone, monkey; type: in vivo; settings: monkeys, after 4 hour oral administration of spironolactone
[5] = Plasmatic potassium (kalemia) measured during the clinical studies; type: in vivo, dog; settings: for Low and transient hyperkalemia (5.9 to 6.4 mmol/L), cases: group on spironolactone
Protocol: The plasmatic potassium concentrations (mmol/L) were measured during the treatments. […] Only sporadic case of low or moderate hyperkalemia could be observed and these events were transient. Indeed, these hyperkalemia events could only be observed a couple of times during examinations, and some of them were present on day D1, before the beginning of the treatment.

[6] = Pharmacokinetic study with 22-14C spironolactone, dog; type: in vivo; settings: dogs, after 4 hour oral administration of spironolactone
[7] = tested on: dogs affected by heart failure; assay: Clinical studies of spironolactone plus ACEI in dogs affected by heart failure; type: in vivo, dog; settings: for reduction of the risk of mortality: oral spironolactone 2 mg/kg/day and a ACEI vs placebo and a ACEI; for Survival probability (absence of mortality): over 15 months (14-15 months), Placebo + ACEI 74%
Protocol: Multicentre, randomised, double-blind placebo-controlled clinical studies were conducted. An example of study concerned 221 dogs, the diagnosis of heart failure relying on persisting symptoms of cardiomegaly or cardiomyopathy after a first ACEI treatment. […] The 112-dog placebo group received a placebo in combination with an ACEI (for instance benazepril chlorhydrate in a dose of 0.25 mg/kg/day).
For gauging the effects of the treatment, both groups were examined five times, i.e., on the first day of treatment (D1), then on the 84th day (D84), […], 252nd day (D252) and 336th day (D336). This examination consisted of a clinical examination of the dogs, urine and blood analyses, and a radiograph. Moreover, an echocardiograph was taken on days D1, D168 and D336.
Also, the effects of the treatment were assessed on the symptoms such as cough and mobility, as well as on the prevention of symptoms such as dyspnoea, pulmonary edema, and tolerance to effort.

[8] = group B, dosage 0, aldosterone 3 μg/kg
[9] = group C, spironolactone dosage 0.8, aldosterone 3 μg/kg
[10] = group D, spironolactone dosage 2, aldosterone 3 μg/kg
[11] = group E, spironolactone dosage 8, aldosterone 3 μg/kg

SMILES: C[C@]12CCC(=O)C=C1CC[C@@H]1[C@@H]2[C@@H](O)C[C@]2(C=O)[C@@H](C(=O)CO)CC[C@@H]12 [Aldosterone]
- increase of the urinary levels of K ([1]; aldosterone on its own): 25%
- reduction of the elimination of Na ([1]; aldosterone on its own): approx. 65%
- Urine flow rate [1]: not significantly modified
- Urine Volume [1, 8]: 115 ± 109 mL
- log (Na × 10/K) [1, 8]: 0.70 ± 0.22
- K [1, 8]: 116.6 mmol/L
- Na [1, 8]: 56.3 ± 29.9 mmol/L

SMILES: CC(=O)S[C@@H]1CC2=CC(=O)CC[C@]2(C)[C@H]2CC[C@@]3(C)[C@@H](CC[C@@]34CCC(=O)O4)[C@H]12 [Spironolactone, 7α-acetylthio-3-oxo-17α-pregn-4-ene-21,17-carbolactone]
- dead (mortality) in the spironolactone group [2]: 35%
- plasma radioactivity percentage [3]: 66%
- plasma radioactivity percentage [4]: 33%
- ED50 ([1]; Canis lupus familiaris, read-out: ED50 (quantity of spironolactone to reach 50% of the maximum response), sigmoid Emax model, log ratio 0 to 6 hours): 1.09 mg/kg
- Urine flow rate [1]: not significantly modified
- Emax-E0 ([1]; corresponded to 100% amplitude, E0 (control group) 0.527): 0.5625
- Urine Volume [1, 9]: 148 ± 154 mL
- log (Na × 10/K) [1, 9]: 0.85 ± 0.24
- Urine Volume [1, 10]: 162 ± 103 mL
- log (Na × 10/K) [1, 10]: 1.02 ± 0.21
- Urine Volume [1, 11]: 190 ± 195 mL
- log (Na × 10/K) [1, 11]: 1.14 ± 0.18
- elimination (excretion) of Na ([1]; higher dose of spironolactone, 8 mg/kg): other increases in the elimination of Na were observed; also recorded: Further increases in Na excretion
- Emax (maximum possible effect of spironolactone) ([1]; log ([Na+]urinary×10/[K+]urinary), Emax model): 1.089
- ED50 (quantity of spironolactone to reach 50% of the maximum response) ([1]; sigmoid Emax model, log ratio 0 to 6 hours): 1.08 ± 0.28 mg/kg
- natriuretic responses ([1]; spironolactone 0.8 mg/kg): no effect on certain dogs
- natriuretic responses ([1]; spironolactone 2 mg/kg): completely reversed
- reversal of the effect of aldosterone on the log ([Na+]urinary×10/[K+]urinary) ([1]; spironolactone 2 mg/kg): complete reversal
- reversal of the effect of aldosterone on the log ([Na+]urinary×10/[K+]urinary) ([1]; spironolactone 8 mg/kg): complete reversal
- Potassium excretion ([1]; spironolactone 0.8, 2 and 8 mg/kg with aldosterone): spared up to 2 mg per kg but not after that
- E(2mg/kg)−E0 ([1]; spironolactone approx. 2 mg/kg): 0.4933
- K [1, 9]: 91.8 mmol/L
- Na [1, 9]: 67.6 ± 49.3 mmol/L
- K [1, 10]: 74.2 mmol/L
- Na [1, 10]: 74.9 ± 40.2 mmol/L
- K [1, 11]: 88.9 mmol/L
- Na [1, 11]: 111.1 ± 67.9 mmol/L
- Low and transient hyperkalemia (5.9 to 6.4 mmol/L), cases ([5]; 2-month clinical study (4 analyses)): 3
- Low and transient hyperkalemia (5.9 to 6.4 mmol/L), cases ([5]; 3-month clinical study (6 analyses)): 5
- Low and transient hyperkalemia (5.9 to 6.4 mmol/L), cases ([5]; 12-month clinical study (5 analyses)): 3
- variation in kalemia ([5]; daily dose of spironolactone of 2 mg/kg/day, dogs): did not cause any variation in kalemia or only low transient variations in kalemia
- progression of average plasmatic potassium (kalemia), FIG. 9 ([5]; spironolactone 2 mg/kg/day and ACEI vs placebo and ACEI): stable kalemia
- plasma radioactivity percentage [6]: 76%
- morbidity-mortality rates ([7]; 14-15 month, spironolactone 2 mg/kg/day + ACEI, against 25%): 11%
- mortality rates ([7]; after 14-15 months, spironolactone 2 mg/kg/day + ACEI, reference group 20%): 6%
- survival probabilities ([7]; dogs treated as of stage I of heart failure, approx. 3.5 years, spironolactone 2 mg/kg/day + ACEI, against 53%): 100%
- survival probabilities ([7]; duration of 3 years, spironolactone 2 mg/kg/day + ACEI, reference group 64%): 80%
- clinical symptoms (cough, mobility, dyspnoea, pulmonary edema, tolerance to effort, syncopes) ([7]; group of dogs on spironolactone vs control group): improved symptoms such as cough and mobility were observed
- reduction of the risk of mortality ([7]; over 3 years): 59%
- reduction of the risk of mortality ([7]; over 14-15 months): 65%
- Survival probability (absence of mortality) ([7]; spironolactone 2 mg/kg/day + ACEI, 109 dogs): 91%
- Survival probability (absence of mortality) ([7]; spironolactone 2 mg/kg/day + ACEI, 109 dogs, listed as spironolactone): 91%
- “survival” probability (absence of morbi-mortality) ([7]; over 15 months, spironolactone 2 mg/kg/day + ACEI, 109 dogs, Placebo + ACEI 67%): 84%

Source: US20160175328A1, “COMPOSITIONS AND TREATMENTS OF HEART FAILURE IN NON-HUMAN MAMMAL ANIMALS” (CEVA SANTE ANIMALE SA, priority 2008, published 2016)
